According to PMC11191317, “PNSC928, a plant-derived compound, specifically disrupts CtBP2-p300 interaction and reduces inflammation in mice with acute respiratory distress syndrome” (Biology Direct, 2024):

Experiments:
[1] = target: T1, CtBP2-p300^BRD interaction (Mus musculus, UniProt B2RWS6+P56546); assay: In vitro pulldown assay with His-CtBP2 and GST-p300^BRD; assay type: binding; settings: PNSC928 0, 11.8, 23.6, and 47.2 µM; 80 nM GST-p300^BRD and 40 nM His-CtBP2
T1 construct: R1 (1-1000 amino acids, aa), R2 (1001–1201 aa), R3 (1202–1810 aa); made in house; host or cells: E. coli BL21
T1 sequence (B2RWS6 1001-1201 limits assumed): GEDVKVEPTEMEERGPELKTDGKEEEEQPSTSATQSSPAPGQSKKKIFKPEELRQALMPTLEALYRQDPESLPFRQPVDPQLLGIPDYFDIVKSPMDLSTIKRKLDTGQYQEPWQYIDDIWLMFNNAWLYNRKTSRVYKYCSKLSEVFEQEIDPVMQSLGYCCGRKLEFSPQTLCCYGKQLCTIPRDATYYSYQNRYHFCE
T1 sequence (P56546 whole entry, the tested form may be a part): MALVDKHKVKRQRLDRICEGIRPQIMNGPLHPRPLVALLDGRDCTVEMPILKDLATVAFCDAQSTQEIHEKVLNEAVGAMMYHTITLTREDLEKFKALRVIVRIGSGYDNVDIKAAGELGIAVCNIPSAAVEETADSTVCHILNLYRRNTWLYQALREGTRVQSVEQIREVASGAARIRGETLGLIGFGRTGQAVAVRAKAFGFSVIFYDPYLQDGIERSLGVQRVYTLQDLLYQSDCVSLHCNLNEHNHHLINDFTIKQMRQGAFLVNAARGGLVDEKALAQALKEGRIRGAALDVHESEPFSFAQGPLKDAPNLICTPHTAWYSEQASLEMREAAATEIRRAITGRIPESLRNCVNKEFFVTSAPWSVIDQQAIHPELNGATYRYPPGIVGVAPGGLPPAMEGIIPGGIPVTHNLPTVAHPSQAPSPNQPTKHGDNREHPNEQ
Experimental: Fig. 4 Identification of PNSC928 and determination of its in vitro and in vivo effects on disruption of CtBP2-p300 interaction. (A) A schematic representation illustrating four regions of the p300 amino acid sequence. (B) Co-IP results. Different combinations of plasmids were cotransfected into MPAEpiC cells. After a 48-hour incubation, cells were lysed and used for immunoprecipitation with anti-Flag agarose. The input and output proteins were probed with anti-Flag and anti-Myc antibodies. n = 3. (C) A schematic representation illustrating the in vitro AlphaScreen setup. (D) AlphaScreen signals for different concentrations of His-CtBP2 and GST-p300^BRD. (E) Chemical structure of PNSC928. (F) IC50 of PNSC928 disrupting CtBP2-p300^BRD interaction. (G and H) In vitro pulldown assay in a reaction consisting of His-CtBP2, GST-p300^BRD, and incremental concentrations of PNSC928 (0, 11.8, 23.6, and 47.2 µM). (G) Pulldown with Ni-NTA beads; (H) Pulldown with GST beads.
To probe this interaction, we established an AlphaScreen system that utilized GST-p300^BRD and His-CtBP2, binding to donor and acceptor beads, respectively (Fig. 4C). […] In vitro assays assessed the effects of PNSC928 on the CtBP2-p300^BRD interaction. […] Furthermore, we assessed the impact of combined LPS and PNSC928 treatment on the expression of key molecules in the NF-κB signaling pathway.

RAW264.7 cells = assay: RT-qPCR of CtBP2/p300/NF-κB target genes in LPS-treated RAW264.7 cells (PNSC928); assay type: cell-based, mouse; settings: LPS + PNSC928 23.6 and 47.2 µM, 6 h
Experimental: For LPS treatment, different knockdown (KD) cell lines—Control^KD, CtBP2^KD, p300^KD, and p65^KD, all derived from MPAEpiC—were seeded in 12-well plates and cultured at 37 °C until reaching 80% confluence. The cells were then treated with 200 ng/mL of LPS for 6 h, washed three times with PBS, and subjected to the required experiments. For experiments involving inhibitors of CtBP2, p300, and NF-κB, as well as the compound PNSC928, MPAEpiC, RAW264.7, FL83B, TKPTS, and HL-1 cells were seeded in 12-well plates and cultured at 37 °C to reach 80% confluence. […]
RNA was isolated from both cultured cells and mouse lung tissues utilizing the TRIzol Reagent (Invitrogen; Shanghai, China; #15,596,018) in adherence to the manufacturer’s protocol. […] Gene expression quantification was carried out using the SYBR GreenER qPCR SuperMix Universal (Thermo Fisher; #1176202K) in combination with the specific primers delineated in Table S3. […]
Fig. 5 Determination of PNSC928 cytotoxicity and evaluation of PNSC928 effects on the expression levels of CtBP2/p300/NF-κB target genes. […] Cell viability was assessed every 24 h for 5 days. […] Subsequently, RNA isolation and RT-qPCR analysis were performed to quantify mRNA levels of various genes. […]

Structure (SMILES): CC(=CCCC1=CCC(C2COC(=O)C2)OC1O)CCC1=C(C)CCCC1(C)C (stereo not drawn) [PNSC928]
- Effect on CtBP2-p300^BRD interaction in pulldown assay [1]: disrupts the CtBP2-p300^BRD interaction in a dose-dependent manner
- Expression levels of CDH1, CDKN1A, CDKN2A, CHRD, PAX6, BAX, NOD2, CCL2, CXCL10, CXCL12, MMP1, STAT1, MIP2, CCR5, GM-CSF, VEGF, COX2, and iNOS (RAW264.7 cells): did not alter the expression levels
- LPS-induced IL-1B, IL-6, IL-15, IL-18, TNFA, and IFNG expressions (RAW264.7 cells): dose-dependent reversal
